Source: patent US20160374985A1, “Bioactivity proanthocyanidin compound isolated from Lasia spinosa (L.) Thwait” (Hong Kong Baptist University, priority 2015, published 2016)
In brackets after ≈: the same amount, converted by molar mass.

Key:
KYSE-150 cells [1] = assay: MTT cell viability, KYSE-150; type: cell-based, human; settings: 6.25 μg/mL
Description: (§1) Murine RAW264.7 macrophages and human esophageal cancer cell lines KYSE-70, KYSE-150, KYSE-410, KYSE-520 were maintained in RPMI 1640 or DMEM medium supplemented with 100 U/mL penicillin, 100 μg/mL streptomycin and 10% FBS in an incubator at 37° C. with a humidified atmosphere of 5% CO2. Cells were sub-cultured every three days at a dilution of 1:6. In the present invention, PA1 was dissolved in dimethyl sulfoxide (DMSO) to make stock solutions which were further diluted in culture medium for this experiment. Cells were seeded in a 96-well plate (3×10^3 cells/well) and allowed to attach to the plate overnight. After the recovery, cells were treated with 1.56, 3.125, 6.25, 12.5, 25, 50 μg/mL of PA1 in culture medium for 48 h. Then, 20 μL of MTT (5 mg/mL stock in PBS) per well was added into the medium (200 μL) and incubated for 4 h at 37° C. Finally, the culture medium was removed and 200 μL of DMSO were added to dissolve the purple formazan crystals. Absorbance of the solution was measured using a microplate reader spectrophotometer (Bio-Rad Laboratories, Inc., Hercules, Calif.) at a wavelength of 570 nm.

DSS-induced colitis = DSS-induced colitis mouse model; type: in vivo, C57BL/6 mice
Text: 7-week-old male C57BL/6 mice weighing about 20-22 g were purchased from the Laboratory Animal Services Center, the Chinese University of Hong Kong. The study protocols were approved by the committee for Care of Laboratory Animals in the School of Chinese Medicine at the Hong Kong Baptist University.
The animals were randomly assigned into five groups (n=8). Mice in the control group were supplied with distilled water whereas all other experimental groups were given 2.0% (w/v) dextran sulphate sodium (DSS) for 5 days. Thereafter, the mice of the DSS, SASP-treated (200 mg/kg/day) and PA1 (10 or 30 mg/kg/day)-treated groups were administered by gavage with saline, SASP or PA1 from day 6 to day 13, respectively.
The DAI was determined by scoring changes in the body weight, diarrhea, colon length, and bleeding.
The colons were dissected longitudinally, gently washed with ice-cold phosphate buffer saline (PBS), fixed in 4% paraformaldehyde overnight, and embedded in paraffin. Each of five-micro-meter sections was stained with hematoxylin/eosin according to a standard procedure to evaluate colonic damage.
Myeloperoxidase (MPO) is an enzyme mainly released by neutrophil, and its activity is directly associated with the severity of inflammation in a given tissue. In the present invention, MPO activity was measured as described in the inventor's earlier publication (Mu, H. X., et al., Anti-inflammatory Actions of (|)-3′alpha-Angeloxy-4′-keto-3′,4′-dihydroseselin (Pd-Ib) against Dextran Sulfate Sodium-Induced Colitis in C57BL/6 Mice. J Nat Prod, 2016). The results were normalized to the wet weight of colon tissue and quantified as units/g tissue.

[2] = test system: LPS-stimulated RAW264.7 macrophages; assay: Nitric oxide production determination (Griess reagent); type: cell-based, murine; settings: LPS 100 ng/mL, PA1 1.56-50 μg/mL, vs LPS-alone
Description: Murine RAW264.7 macrophages and human esophageal cancer cell lines KYSE-70, KYSE-150, KYSE-410, KYSE-520 were maintained in RPMI 1640 or DMEM medium supplemented with 100 U/mL penicillin, 100 μg/mL streptomycin and 10% FBS in an incubator at 37° C. with a humidified atmosphere of 5% CO2. Cells were sub-cultured every three days at a dilution of 1:6. Nitric oxide (NO) production was indirectly assessed by measuring the nitrite levels in the cultured medium determined by a colorimetric method based on the Griess reagent. The cells were co-treated with various concentrations of PA1 in the absence or presence of LPS (100 ng/mL) at 37° C. for 24 hours. Then, 100 μL of each supernatant was mixed with the equal volume of Griess reagent incubated at room temperature for 15 minutes; meanwhile, sodium nitrite was used as a standard substance. The optical densities were measured at 540 nm with a micro-plate reader.

KYSE-150 cells [3] = assay: Wound healing assay; type: cell-based, human; settings: PA1 6.25 μg/mL, 72 hours
Description: (§2) Murine RAW264.7 macrophages and human esophageal cancer cell lines KYSE-70, KYSE-150, KYSE-410, KYSE-520 were maintained in RPMI 1640 or DMEM medium supplemented with 100 U/mL penicillin, 100 μg/mL streptomycin and 10% FBS in an incubator at 37° C. with a humidified atmosphere of 5% CO2. Cells were sub-cultured every three days at a dilution of 1:6.
6×10^4 cell/well were seeded in 12 well-plate at 30% confluence in completed medium. After 24 hours seeding, the monolayer was wounded by scoring with a sterile plastic tip (1 mL), then washed twice with PBS to remove cell debris and then incubated in a conditioned medium in the absence or presence of PA1 at 6.25 μg/mL for various periods of time up to 72 hours. Cell migration into the wound surface was monitored by Olympus IX71 microscopy and digitally photographed.
In addition, wound-healing assay was used to test whether those compounds could affect cell motility. A confluent monolayer of KYSE-150 cells was scratched to form a wound and incubated in the absence or presence of PA1 at 6.25 μg/mL. The results obtained were compared to that of controls.

RAW264.7 macrophages = assay: Cell viability of RAW macrophages; type: cell-based, murine; settings: RAW cells, 1.56-50 μg/mL, 20 hours
Description: as §1, with “After the recovery, cells were treated with 1.56, 3.125, 6.25, 12.5, 25, 50 μg/mL of PA1 in culture medium for 48 h.” left out

KYSE-450 cells = assay: MTT cytotoxicity assay; type: cell-based; settings: Homo sapiens, 48 h
Description: as §2
as §1, with “In” for “Murine RAW264.7 macrophages and human esophageal cancer cell lines KYSE-70, KYSE-150, KYSE-410, KYSE-520 were maintained in RPMI 1640 or DMEM medium supplemented with 100 U/mL penicillin, 100 μg/mL streptomycin and 10% FBS in an incubator at 37° C. with a humidified atmosphere of 5% CO2. Cells were sub-cultured every three days at a dilution of 1:6. In”
To determine the cytotoxic effect of PA1 against human esophagus cancer cells (KYSE-70, KYSE-150, KYSE-450 and KYSE-520 cell lines), MTT (3-[4,5-dimethylthiazol-2-yl]-2,5-diphenyltetrazolium bromide) assay was performed.

[4] = mice, 2% DSS, PA1 10 or 30 mg/kg/day by gavage day 6-13

Oc1cc(O)c2c(c1)OC1(c3ccc(O)c(O)c3)Oc3cc(O)c4c(c3C2C1O)OC(c1ccc(O)c(O)c1)[C@@H](O)C4 (some centres unmarked) [PA1, proanthocyanidin A1]
Cell viability (KYSE-150 cells [1]): did not alter the cells viability | Colonic MPO activity (DSS-induced colitis; colon homogenates, day 14, vs DSS group): significantly lower the MPO activity | Histological manifestation of colon (H&E) (DSS-induced colitis; mice, 2% DSS, PA1 10 or 30 mg/kg, vs DSS group): reduction in mucosal ulceration, crypt damage, edema, and cell infiltration into mucosal tissue | Disease activity index (DAI) score (DSS-induced colitis; [4]): clinical improvement | Mortality (DSS-induced colitis; [4]): decreased | Body weight loss (DSS-induced colitis; mice, 2% DSS, PA1 10 or 30 mg/kg/day by gavage day 6-13, vs DSS group): reduced body weight loss | Shortening of colon length (DSS-induced colitis; mice, 2% DSS, PA1 10 or 30 mg/kg/day by gavage, day 14): rectified | NO production [2]: significant inhibition of NO production | Cell migration into the wound (KYSE-150 cells [3]): did not migrate into the wound | Cell viability (RAW264.7 macrophages): did not alter the cells viability | IC50 (KYSE-450 cells): 48.6 µg/mL (≈ 84.4 µM)
